This assay has as its target T1, CDK2 (Homo sapiens, UniProt P24941).
T1 construct: High-Throughput Measurement of Cellular Endogenous CDK2; endogenous in cells; host or cells: OVCAR3
Put plainly: Inhibition of CDK2: phospho-Rb (S807/811) HTRF measurement in OVCAR3 cells, 24 h. The class given is cell-based. The following applies: 24 h compound treatment, read-out: pRB_OVCAR3_24h. A digest of the protocol: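 IC50 came from a four-parameter fit of DMSO-normalized TR-FRET ratios (665/620 nm) reporting phospho-Rb S807/811. Lysates were taken from OVCAR3 cultures treated 24 h with compound (0.3 to 10,000 nM) and incubated 4 h at room temperature with the antibody pair.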
(In TR-FRET formats the signal depends on donor and acceptor labels being close together.)

With `Cn1nc(N2CCC(=O)NC2=O)c2ccc(C3CCN(CC4CCN(c5cccc(S(=O)(=O)N6[C@@H]7CC[C@H]6CC(Nc6ncc(Cl)cn6)C7)c5)CC4)CC3)cc21` (stereo partly drawn) [Example 227, 1-(6-(1-((1-(3-(((1R,5S)-3-((5-chloropyrimidin-2-yl)amino)-8-azabicyclo[3.2.1]octan-8-yl)sulfonyl)phenyl)piperidin-4-yl)methyl)piperidin-4-yl)-1-methyl-1H-indazol-3-yl)dihydropyrimidine-2,4(1H,3H)-dione], the IC50 was 500 to 2500 nM.

On to `Cn1nc(N2CCC(=O)NC2=O)c2cnc(C3CCN(CC4CCN(c5cccc(S(=O)(=O)N6CCC(Nc7ncc(Cl)cn7)CC6)c5)CC4)CC3)cc21` [Example 228, 1-(6-(1-((1-(3-((4-((5-chloropyrimidin-2-yl)amino)piperidin-1-yl)sulfonyl)phenyl)piperidin-4-yl)methyl)piperidin-4-yl)-1-methyl-1H-pyrazolo[4,3-c]pyridin-3-yl)dihydropyrimidine-2,4(1H,3H)-dione], for which the IC50 is 100 to 500 nM.

Take `Cn1nc(N2CCC(=O)NC2=O)c2ccc(C#CCN3CCN(c4cccc(S(=O)(=O)N5CCC(Nc6ncc(C(F)(F)F)cn6)CC5)c4)CC3)cc21` [Example 230, 1-(1-methyl-6-(3-(4-(3-((4-((5-(trifluoromethyl)pyrimidin-2-yl)amino)piperidin-1-yl)sulfonyl)phenyl)piperazin-1-yl)prop-1-yn-1-yl)-1H-indazol-3-yl)dihydropyrimidine-2,4(1H,3H)-dione]: the IC50 lay in the range of 500 to 2500 nM.

With `Cn1nc(N2CCC(=O)NC2=O)c2ccc(C#CCN3CCN(c4cccc(S(=O)(=O)N5CCC(Nc6ncc(Cl)cn6)CC5)c4)CC3)cc21` [Example 231, 1-(6-(3-(4-(3-((4-((5-chloropyrimidin-2-yl)amino)piperidin-1-yl)sulfonyl)phenyl)piperazin-1-yl)prop-1-yn-1-yl)-1-methyl-1H-indazol-3-yl)dihydropyrimidine-2,4(1H,3H)-dione], the IC50 lay in the range of 500 to 2500 nM.

Consider `Cn1nc(N2CCC(=O)NC2=O)c2ccc(C3CCN(Cc4ccc(C#Cc5cccc(S(=O)(=O)N6CCC(Nc7ncc(C(F)(F)F)cn7)CC6)c5)cc4)CC3)cc21` [Example 232, 1-(1-methyl-6-(1-(4-((3-((4-((5-(trifluoromethyl)pyrimidin-2-yl)amino)piperidin-1-yl)sulfonyl)phenyl)ethynyl)benzyl)piperidin-4-yl)-1H-indazol-3-yl)dihydropyrimidine-2,4(1H,3H)-dione], for which the IC50 fell in the range of 100 to 500 nM.

On to `Cn1nc(N2CCC(=O)NC2=O)c2ccc(C3CCN(Cc4cccc(C#Cc5cccc(S(=O)(=O)N6CCC(Nc7ncc(C(F)(F)F)cn7)CC6)c5)c4)CC3)cc21` [Example 233], for which the IC50 fell in the range of 100 to 500 nM.

Take `Cn1nc(N2CCC(=O)NC2=O)c2ccc(CCCN3CCN(c4cccc(S(=O)(=O)N5CCC(Nc6ncc(C(F)(F)F)cn6)CC5)c4)CC3)cc21` [Example 235, 1-(1-methyl-6-(3-(4-(3-((4-((5-(trifluoromethyl)pyrimidin-2-yl)amino)piperidin-1-yl)sulfonyl)phenyl)piperazin-1-yl)propyl)-1H-indazol-3-yl)dihydropyrimidine-2,4(1H,3H)-dione]: the IC50 was in the range of 100 to 500 nM.

With `O=C1CCC(NC(=O)c2ccc(C3CCN(CC4CCN(c5cccc(S(=O)(=O)N6CCC(Nc7ncc(C(F)(F)F)cn7)CC6)c5)CC4)CC3)cc2F)C(=O)N1` (stereo not drawn) [Example 236, N-(2,6-dioxopiperidin-3-yl)-2-fluoro-4-(1-((1-(3-((4-((5-(trifluoromethyl)pyrimidin-2-yl)amino)piperidin-1-yl)sulfonyl)phenyl)piperidin-4-yl)methyl)piperidin-4-yl)benzamide], the IC50 was 100 to 500 nM.

Regarding `O=C1CCC(NC(=O)c2ccc(C3CCN(CC4CCN(c5cccc(S(=O)(=O)N6CCC(Nc7ncc(Cl)cn7)CC6)c5)CC4)CC3)cc2F)C(=O)N1` (stereo not drawn) [Example 237, 4-(1-((1-(3-((4-((5-chloropyrimidin-2-yl)amino)piperidin-1-yl)sulfonyl)phenyl)piperidin-4-yl)methyl)piperidin-4-yl)-N-(2,6-dioxopiperidin-3-yl)-2-fluorobenzamide], the IC50 lay within 500 to 2500 nM.

In the case of `Cn1nc(N2CCC(=O)NC2=O)c2ccc(C3CCN(CC4CCN(c5cccc(S(=O)(=O)[C@H]6CC[C@H](Nc7ncc(C(F)(F)F)cn7)CC6)c5)CC4)CC3)cc21` [Example 240], the IC50 is greater than 2500 nM.

Consider `Cn1nc(N2CCC(=O)NC2=O)c2ccc(C3CCN(Cc4ccc(S(=O)(=O)N5CCC(Nc6ncc(OC(F)F)cn6)CC5)cc4)CC3)c(F)c21` [Example 242, 1-(6-(1-(4-((4-((5-(difluoromethoxy)pyrimidin-2-yl)amino)piperidin-1-yl)sulfonyl)benzyl)piperidin-4-yl)-7-fluoro-1-methyl-1H-indazol-3-yl)dihydropyrimidine-2,4(1H,3H)-dione], for which the IC50 is 500 to 2500 nM.

With `Cn1nc(N2CCC(=O)NC2=O)c2ccc(C3CCN(CC4CCN(c5cccc(S(=O)(=O)N6CCC(Nc7ncc(CC(F)(F)F)cn7)CC6)c5)CC4)CC3)cc21` [Example 243, 1-(1-methyl-6-(1-((1-(3-((4-((5-(2,2,2-trifluoroethyl)pyrimidin-2-yl)amino)piperidin-1-yl)sulfonyl)phenyl)piperidin-4-yl)methyl)piperidin-4-yl)-1H-indazol-3-yl)dihydropyrimidine-2,4(1H,3H)-dione], the IC50 lay within 500 to 2500 nM.

Regarding `Cn1nc(N2CCC(=O)NC2=O)c2ccc(C3CCN(CC4CCN(c5cccc(S(=O)(=O)c6ccc(Nc7ncc(C(F)(F)F)cn7)cc6)c5)CC4)CC3)cc21` [Example 245, 1-(1-methyl-6-(1-((1-(3-((4-((5-(trifluoromethyl)pyrimidin-2-yl)amino)phenyl)sulfonyl)phenyl)piperidin-4-yl)methyl)piperidin-4-yl)-1H-indazol-3-yl)dihydropyrimidine-2,4(1H,3H)-dione], the IC50 was greater than 2500 nM.

With `Cn1nc(C2CCC(=O)NC2=O)c2ccc(C3CCN(CC4CCN(c5cccc(S(=O)(=O)N6CCC(Nc7ncc(Cl)cn7)CC6)c5)CC4)CC3)cc21` (stereo not drawn) [Example 246, 3-(6-(1-((1-(3-((4-((5-chloropyrimidin-2-yl)amino)piperidin-1-yl)sulfonyl)phenyl)piperidin-4-yl)methyl)piperidin-4-yl)-1-methyl-1H-indazol-3-yl)piperidine-2,6-dione], the IC50 is 500 to 2500 nM.

`Cn1nc(N2CCC(=O)NC2=O)c2ccc(C3CN(CC4CCN(c5cccc(S(=O)(=O)N6CCC(Nc7ncc(Cl)cn7)CC6)c5)CC4)C3)cc21` [Example 249, 1-(6-(1-((1-(3-((4-((5-chloropyrimidin-2-yl)amino)piperidin-1-yl)sulfonyl)phenyl)piperidin-4-yl)methyl)azetidin-3-yl)-1-methyl-1H-indazol-3-yl)dihydropyrimidine-2,4(1H,3H)-dione]: the IC50 lay within 100 to 500 nM.

On to `Cn1nc(N2CCC(=O)NC2=O)c2ccc(C3CCN(CC4CCN(c5cccc(S(=O)(=O)N6CCC(Nc7ncc(OC8CC8)cn7)CC6)c5)CC4)CC3)cc21` [Example 252, 1-(6-(1-((1-(3-((4-((5-cyclopropoxypyrimidin-2-yl)amino)piperidin-1-yl)sulfonyl)phenyl)piperidin-4-yl)methyl)piperidin-4-yl)-1-methyl-1H-indazol-3-yl)dihydropyrimidine-2,4(1H,3H)-dione], for which the IC50 lay in the range of 100 to 500 nM.

Regarding `CC(C)Oc1cnc(NC2CCN(S(=O)(=O)c3cccc(N4CCC(CN5CCC(c6ccc7c(N8CCC(=O)NC8=O)nn(C)c7c6)CC5)CC4)c3)CC2)nc1` [Example 253, 1-(6-(1-((1-(3-((4-((5-isopropoxypyrimidin-2-yl)amino)piperidin-1-yl)sulfonyl)phenyl)piperidin-4-yl)methyl)piperidin-4-yl)-1-methyl-1H-indazol-3-yl)dihydropyrimidine-2,4(1H,3H)-dione], the IC50 was greater than 2500 nM.

As to `Cn1cc(C2CCC(=O)NC2=O)c2ccc(C3CCN(CC4CCN(c5cccc(S(=O)(=O)N6CCC(Nc7ncc(Cl)cn7)CC6)c5)CC4)CC3)cc21` (stereo not drawn) [Example 254, 3-(6-(1-((1-(3-((4-((5-chloropyrimidin-2-yl)amino)piperidin-1-yl)sulfonyl)phenyl)piperidin-4-yl)methyl)piperidin-4-yl)-1-methyl-1H-indol-3-yl)piperidine-2,6-dione], the IC50 was 100 to 500 nM.

Regarding `Cn1nc(N2CCC(=O)NC2=O)c2ccc(C3CCN(C[C@H]4CCCN4c4cc(S(=O)(=O)N5CCC(Nc6ncc(OC(F)F)cn6)CC5)ccc4C#N)CC3)cc21` [Example 255, (R)-4-((4-((5-(difluoromethoxy)pyrimidin-2-yl)amino)piperidin-1-yl)sulfonyl)-2-(2-((4-(3-(2,4-dioxotetrahydropyrimidin-1(2H)-yl)-1-methyl-1H-indazol-6-yl)piperidin-1-yl)methyl)pyrrolidin-1-yl)benzonitrile], the IC50 was in the range of 100 to 500 nM.

Consider `Cn1nc(N2CCC(=O)NC2=O)c2ccc(C3CCN(C[C@@H]4CCCN4c4cc(S(=O)(=O)N5CCC(Nc6ncc(OC(F)F)cn6)CC5)ccc4C#N)CC3)cc21` [Example 256, (S)-4-((4-((5-(difluoromethoxy)pyrimidin-2-yl)amino)piperidin-1-yl)sulfonyl)-2-(2-((4-(3-(2,4-dioxotetrahydropyrimidin-1(2H)-yl)-1-methyl-1H-indazol-6-yl)piperidin-1-yl)methyl)pyrrolidin-1-yl)benzonitrile], for which the IC50 is 100 to 500 nM.

For `Cn1nc(N2CCC(=O)NC2=O)c2ccc(C3CCN(C[C@@H]4CCCN(c5cccc(S(=O)(=O)N6CCC(Nc7ncc(OC(F)F)cn7)CC6)c5)C4)CC3)cc21` [Example 257, (S)-1-(6-(1-((1-(3-((4-((5-(difluoromethoxy)pyrimidin-2-yl)amino)piperidin-1-yl)sulfonyl)phenyl)piperidin-3-yl)methyl)piperidin-4-yl)-1-methyl-1H-indazol-3-yl)dihydropyrimidine-2,4(1H,3H)-dione], the IC50 lay within 100 to 500 nM.

The values are drawn from patent US20260167623A1 (NIKANG THERAPEUTICS, INC., priority 2022, published 2026).
